According to ChEMBL document CHEMBL1201862, “PubChem BioAssay data set” (2004):
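48-hour exposure; five concentrations; linearly interpolated endpoints. Here, GI50 denotes the concentration required for 50% inhibition of growth.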 Activity calls are given as the source filed them. Cut-off read from the data, not from the text of the source: active = GI50 up to about 1.1 µM and inactive = higher.

Key:
Experiment in all cases: NCI-60 cell line screen, 48 h
786-0 = tested on: 786-0
A549 = tested on: A549
CAKI-1 = tested on: CAKI-1
HCC 2998 = tested on: HCC 2998
HCT-116 = tested on: HCT-116
HL-60 = tested on: HL-60
HOP-92 = tested on: HOP-92
LXFL 529 = tested on: LXFL 529
M14 = tested on: M14
MOLT-4 = tested on: MOLT-4
NCI-H460 = tested on: NCI-H460
RPMI-8226 = tested on: RPMI-8226
SF-295 = tested on: SF-295
SK-OV-3 = tested on: SK-OV-3
SNB-78 = tested on: SNB-78
UO-31 = tested on: UO-31
EKVX = tested on: EKVX
OVCAR-3 = tested on: OVCAR-3

COC(=O)c1nn(C(=N)c2ccc(Cl)cc2)c2c1CCC2
GI50 (786-0): > 100 µM (inactive) | GI50 (A549): > 100 µM (inactive) | GI50 (CAKI-1): > 100 µM (inactive) | GI50 (HCC 2998): > 100 µM (inactive) | GI50 (HCT-116): > 100 µM (inactive) | GI50 (HL-60): > 100 µM (inactive) | GI50 (HOP-92): > 100 µM (inactive) | GI50 (LXFL 529): > 100 µM (inactive) | GI50 (M14): > 100 µM (inactive) | GI50 (MOLT-4): > 100 µM (inactive) | GI50 (NCI-H460): > 100 µM (inactive) | GI50 (RPMI-8226): > 100 µM (inactive) | GI50 (SF-295): > 100 µM (inactive) | GI50 (SK-OV-3): > 100 µM (inactive) | GI50 (SNB-78): > 100 µM (inactive) | GI50 (UO-31): > 100 µM (inactive)

c1cc2c(cc1C1OCC3C(c4ccc5c(c4)OCO5)OCC13)OCO2 (stereo unspecified)
GI50 (786-0): > 100 µM (inactive) | GI50 (A549): 54 µM (inactive) | GI50 (EKVX): 62.4 µM (inactive) | GI50 (HCC 2998): 71.1 µM (inactive) | GI50 (HCT-116): 51.5 µM (inactive) | GI50 (HOP-92): 69.7 µM (inactive) | GI50 (LXFL 529): 37.8 µM (inactive) | GI50 (M14): 66.8 µM (inactive) | GI50 (MOLT-4): 34.1 µM (inactive) | GI50 (NCI-H460): 75.3 µM (inactive) | GI50 (OVCAR-3): 84.1 µM (inactive) | GI50 (SF-295): 87.1 µM (inactive) | GI50 (SK-OV-3): > 100 µM (inactive) | GI50 (SNB-78): > 100 µM (inactive) | GI50 (UO-31): 57 µM (inactive)

O=C1C(=O)N(c2cc(Cl)ccc2Cl)C(=O)C(=O)C1c1nc2ccccc2s1
GI50 (786-0): > 100 µM (inactive) | GI50 (A549): > 100 µM (inactive) | GI50 (CAKI-1): > 100 µM (inactive) | GI50 (EKVX): > 100 µM (inactive) | GI50 (HCT-116): 66.5 µM (inactive) | GI50 (HL-60): > 100 µM (inactive) | GI50 (HOP-92): 24.4 µM (inactive) | GI50 (LXFL 529): 82.2 µM (inactive) | GI50 (M14): > 100 µM (inactive) | GI50 (NCI-H460): > 100 µM (inactive) | GI50 (OVCAR-3): > 100 µM (inactive) | GI50 (RPMI-8226): > 100 µM (inactive) | GI50 (SF-295): > 100 µM (inactive) | GI50 (SK-OV-3): > 100 µM (inactive) | GI50 (SNB-78): > 100 µM (inactive) | GI50 (UO-31): 16.2 µM (inactive)

COC(=O)C(Cc1nc2ccc(Cl)cc2nc1O)C(=O)C(=O)Nc1ccccc1[N+](=O)[O-] (stereo unspecified)
GI50 (786-0): > 100 µM (inactive) | GI50 (A549): > 100 µM (inactive) | GI50 (CAKI-1): > 100 µM (inactive) | GI50 (EKVX): 7.8 µM (inactive) | GI50 (HCC 2998): > 100 µM (inactive) | GI50 (HCT-116): > 100 µM (inactive) | GI50 (HL-60): > 100 µM (inactive) | GI50 (LXFL 529): > 100 µM (inactive) | GI50 (M14): > 100 µM (inactive) | GI50 (MOLT-4): > 100 µM (inactive) | GI50 (NCI-H460): > 100 µM (inactive) | GI50 (OVCAR-3): > 100 µM (inactive) | GI50 (RPMI-8226): > 100 µM (inactive) | GI50 (SF-295): > 100 µM (inactive) | GI50 (SK-OV-3): > 100 µM (inactive) | GI50 (SNB-78): > 100 µM (inactive) | GI50 (UO-31): > 100 µM (inactive)

O=C1c2ccccc2C(=O)c2sc(Nc3ccc(Cl)cc3)nc21
GI50 (786-0): 1.6 µM (inactive) | GI50 (A549): 8.63 µM (inactive) | GI50 (CAKI-1): 1.99 µM (inactive) | GI50 (EKVX): 5.77 µM (inactive) | GI50 (HCC 2998): 4.32 µM (inactive) | GI50 (HCT-116): 1.64 µM (inactive) | GI50 (HL-60): 0.1 µM (active) | GI50 (LXFL 529): 1.69 µM (inactive) | GI50 (M14): 2.14 µM (inactive) | GI50 (MOLT-4): 0.762 µM (active) | GI50 (NCI-H460): 2.82 µM (inactive) | GI50 (OVCAR-3): 1.51 µM (inactive) | GI50 (RPMI-8226): 1.38 µM (inactive) | GI50 (SF-295): 5.53 µM (inactive) | GI50 (SK-OV-3): 18.9 µM (inactive) | GI50 (SNB-78): 3.49 µM (inactive) | GI50 (UO-31): 3.35 µM (inactive)

COC1=C(OC)CCC(/C(C#N)=C/c2ccc(OC)c(OC)c2)=C1
GI50 (786-0): 67.5 µM (inactive) | GI50 (A549): > 100 µM (inactive) | GI50 (CAKI-1): > 100 µM (inactive) | GI50 (HCC 2998): > 100 µM (inactive) | GI50 (HCT-116): > 100 µM (inactive) | GI50 (HOP-92): 49.8 µM (inactive) | GI50 (LXFL 529): > 100 µM (inactive) | GI50 (M14): > 100 µM (inactive) | GI50 (MOLT-4): > 100 µM (inactive) | GI50 (NCI-H460): > 100 µM (inactive) | GI50 (OVCAR-3): > 100 µM (inactive) | GI50 (RPMI-8226): > 100 µM (inactive) | GI50 (SF-295): 15.9 µM (inactive) | GI50 (SK-OV-3): 26.4 µM (inactive) | GI50 (SNB-78): 53.2 µM (inactive) | GI50 (UO-31): 36.1 µM (inactive)

COC(=O)CC1NC(=O)[C@@H]1C(C)O (stereo partly specified)
GI50 (786-0): > 100 µM (inactive) | GI50 (A549): > 100 µM (inactive) | GI50 (EKVX): > 100 µM (inactive) | GI50 (HCC 2998): > 100 µM (inactive) | GI50 (HCT-116): > 100 µM (inactive) | GI50 (HL-60): > 100 µM (inactive) | GI50 (LXFL 529): > 100 µM (inactive) | GI50 (M14): > 100 µM (inactive) | GI50 (MOLT-4): > 100 µM (inactive) | GI50 (NCI-H460): > 100 µM (inactive) | GI50 (OVCAR-3): > 100 µM (inactive) | GI50 (RPMI-8226): > 100 µM (inactive) | GI50 (SF-295): > 100 µM (inactive) | GI50 (UO-31): > 100 µM (inactive)

COC(=O)C(CC(=O)c1c[nH]c2ccccc12)c1c[nH]c2ccccc12 (stereo unspecified)
GI50 (786-0): 23.9 µM (inactive) | GI50 (A549): 21.2 µM (inactive) | GI50 (CAKI-1): 20 µM (inactive) | GI50 (EKVX): 23.4 µM (inactive) | GI50 (HCC 2998): 23 µM (inactive) | GI50 (HCT-116): 15.8 µM (inactive) | GI50 (HL-60): 20.1 µM (inactive) | GI50 (M14): 18.2 µM (inactive) | GI50 (MOLT-4): 16.2 µM (inactive) | GI50 (NCI-H460): 18.8 µM (inactive) | GI50 (OVCAR-3): > 10 µM (inactive) | GI50 (RPMI-8226): 11.5 µM (inactive) | GI50 (SF-295): > 10 µM (inactive) | GI50 (SK-OV-3): 41.9 µM (inactive) | GI50 (SNB-78): 22.2 µM (inactive) | GI50 (UO-31): 18.2 µM (inactive)

CC(C)(C)C(=O)/C=C/c1cccc(Oc2ccccc2)c1
GI50 (786-0): 16.7 µM (inactive) | GI50 (A549): 21.1 µM (inactive) | GI50 (EKVX): 18.7 µM (inactive) | GI50 (HCC 2998): 19 µM (inactive) | GI50 (HCT-116): 10.5 µM (inactive) | GI50 (LXFL 529): 18.1 µM (inactive) | GI50 (M14): 18.6 µM (inactive) | GI50 (MOLT-4): 14.6 µM (inactive) | GI50 (NCI-H460): 16 µM (inactive) | GI50 (RPMI-8226): 3.94 µM (inactive) | GI50 (SF-295): 11.8 µM (inactive) | GI50 (SK-OV-3): 41 µM (inactive) | GI50 (SNB-78): 14.2 µM (inactive) | GI50 (UO-31): 14.4 µM (inactive)
